Measurements from patent US20250325684A1, “POTENT ANTI-CANCER CYCLOTIDES” (University of Southern California, priority 2022, published 2025).
Values belong to the compound of their own block, whether it stands above or below them. Bridge positions count the residues as written; N and C are the ends. Peptide text beside a SMILES is read from it.

Experiments:
U937 = experiment: MTT cell viability, U937 cells; format: cell-based, human; details: Homo sapiens, U-937, U937 adult acute monocytic leukemia, p53 Mutant
Method: (§1) Cell viability assay in several human cancer cell lines (See Tables 1 to 10). Cell lines were cultured in RPMI 1640 (or recommended medium when indicated) medium supplemented with 10% fetal calf serum, penicillin (50 IU/mL) and streptomycin ([…]) at 37° C. in 5% CO2. Cell viability studies was carried using the MTT (3-(4,5-dimethylthiazol-2-yl)-2,5-diphenyltetrazolium bromide) assay as previously described (31). Briefly, ≈2×10^3 CRC cells were be seeded in 96-well microtiter plates in 100 μL RPMI 1640 in the presence of 10% calf serum. […] After 1 h, 210 μL/well of full complemented media was added, the cells were grown for 48 h and then treated with 20 μL of a solution of MTT (5 mg/mL) for 2 h. The medium was discarded and DMSO ([…]) was added to each well and incubated with gentle shaking for 20 min at room temperature. The absorbance at 595 nm of the solution is analyzed using a Tecan Genios Multifunctional Microplate Reader (Tecan System Inc) and the background at 670 nm subtracted. RNA-Seq analysis was performed using state-of-the-art bioinformatics tools. Briefly, raw RNA-Seq reads were mapped to human genome (hg38) using STAR aligner (v2.7.3a). Gencode Release 36 reference was used for annotation. Transcript and gene expression levels were quantified using the IsoEM (37) with default parameters. Counts per million (CPM) method is used for normalization. Differential expression was done using DESeq2 with default parameters. Genes involved in different biological pathways (human) were searched from Geneontology (http://geneontology.org/). Bioinformatics results can be validated by using Partek Flow (v10.0.21.0912), a bioinformatics pipeline developed by Zymo Research (https://www.zymoresearch.com/).
(§2) Cell viability was evaluated using the MTT assay as described above.

NCl-H526 = experiment: MTT cell viability, NCl-H526 cells; format: cell-based, human; details: Homo sapiens, NCl-H526 lung small cell carcinoma, p53 Null
Method: as §1, §2

Jurkat = experiment: MTT cell viability, Jurkat cells; format: cell-based, human; details: Homo sapiens, Jurkat childhood T acute lymphoblastic leukemia, p53 Mutant
Method: as §1, §2

NCl-H69 = experiment: MTT cell viability, NCl-H69 cells; format: cell-based, human; details: Homo sapiens, NCl-H69 lung small cell carcinoma, p53 Mutant
Method: as §1, §2

NCl-H23 = experiment: MTT cell viability, NCl-H23 cells; format: cell-based, human; details: Homo sapiens, NCl-H23 lung adenocarcinoma, p53 Mutant
Method: as §1, §2

HCT116^−/− = experiment: MTT cell viability, HCT116 p53-null cells; format: cell-based, human; details: Homo sapiens, HCT-116
Method: as §1, with “Counts per million (CPM) method is used for normalization. Differential expression was done using DESeq2 with default parameters. Genes involved in different biological pathways (human) were searched from Geneontology (http://geneontology.org/). Bioinformatics results can be validated by using Partek Flow (v10.0.21.0912), a bioinformatics pipeline developed by Zymo Research (https://www.zymoresearch.com/).” left out
as §2

NCl-A549 = experiment: MTT cell viability, NCl-A549 cells; format: cell-based, human; details: Homo sapiens, NCl-A549 lung adenocarcinoma, p53 WT
Method: as §1, §2

SW480 = experiment: MTT cell viability, SW480 cells; format: cell-based, human; details: Homo sapiens, SW480 colon adenocarcinoma, p53 Mutant
Method: as §1, §2

CFPAC-1 = experiment: MTT cell viability, CFPAC-1 cells; format: cell-based, human; details: CFPAC-1 pancreatic ductal adenocarcinoma, p53 Mutant
Method: as §1, §2

PANC-1 = experiment: MTT cell viability, PANC-1 cells; format: cell-based, human; details: PANC-1 pancreatic ductal adenocarcinoma, p53 Mutant
Method: as §1, §2

MOLM-13 = experiment: MTT cell viability, MOLM-13 cells; format: cell-based, human; details: Homo sapiens, MOLM-13 adult acute myeloid leukemia, p53 WT
Method: as §1, §2

MSCLC 494 = experiment: MTT cell viability, MSCLC 494 cells; format: cell-based; details: Mus musculus, MSCLC 494 murine small cell lung cancer
Method: as §1, §2

Caco-2 = experiment: MTT cell viability, Caco-2 cells; format: cell-based, human; details: Homo sapiens, Caco-2 colon adenocarcinoma, p53 Mutant
Method: as §1, §2

MIA PaCa-2 = experiment: MTT cell viability, MIA PaCa-2 cells; format: cell-based, human; details: MIA PaCa-2 pancreatic ductal adenocarcinoma, p53 Mutant
Method: as §1, §2

MV4-11 = experiment: MTT cell viability, MV4-11 cells; format: cell-based, human; details: Homo sapiens, MV4-11 childhood acute monocytic leukemia, p53 WT
Method: as §1, §2

HPAF-II = experiment: MTT cell viability, HPAF-II cells; format: cell-based, human; details: HPAF-II pancreatic ductal adenocarcinoma, p53 Mutant
Method: as §1, §2

HCT116^+/+ = experiment: MTT cell viability, HCT116 p53 wild-type cells; format: cell-based, human; details: Homo sapiens, HCT-116
Method: as §1, §2

NCl-H522 = experiment: MTT cell viability, NCl-H522 cells; format: cell-based, human; details: Homo sapiens, NCl-H522 lung adenocarcinoma, p53 Mutant (Deletion)
Method: as §1, §2

NCl-H1299 = experiment: MTT cell viability, NCl-H1299 cells; format: cell-based, human; details: Homo sapiens, NCl-H1299 lung large cell carcinoma, p53 Null
Method: as §1, §2

BxPC-3 = experiment: MTT cell viability, BxPC-3 cells; format: cell-based, human; details: BxPC-3 pancreatic ductal adenocarcinoma, p53 Mutant
Method: as §1, §2

NIHOVCAR3 = experiment: MTT cell viability, NIHOVCAR3 ovarian cells; format: cell-based, human; details: p53 Mutant
Method: (§3) Cell viability assay in several human cancer cell lines (See Tables 1 to 10). Cell lines were cultured in RPMI 1640 (or recommended medium when indicated) medium supplemented with 10% fetal calf serum, penicillin (50 IU/mL) and streptomycin ([…]) at 37° C. in 5% CO2. Cell viability studies was carried using the MTT (3-(4,5-dimethylthiazol-2-yl)-2,5-diphenyltetrazolium bromide) assay as previously described (31). Briefly, ≈2×10^3 CRC cells were be seeded in 96-well microtiter plates in 100 μL RPMI 1640 in the presence of 10% calf serum. After 24 h incubation the cells were washed with PBS and treated with 30 μL/well of PBS or RPMI 1640 (or recommended) media containing cyclotides MCo-52, MCoTI-I (used as negative control), nutlin-3a (used as positive control) or MI-77301 (used as positive control for p53-mutated or p53-null cells) at the indicated doses for 1 h at 37° C. in 5% CO2. After 1 h, 210 μL/well of full complemented media was added, the cells were grown for 48 h and then treated with 20 μL of a solution of MTT (5 mg/mL) for 2 h. The medium was discarded and DMSO ([…]) was added to each well and incubated with gentle shaking for 20 min at room temperature. The absorbance at 595 nm of the solution is analyzed using a Tecan Genios Multifunctional Microplate Reader (Tecan System Inc) and the background at 670 nm subtracted. RNA-Seq analysis was performed using state-of-the-art bioinformatics tools. Briefly, raw RNA-Seq reads were mapped to human genome (hg38) using STAR aligner (v2.7.3a). Gencode Release 36 reference was used for annotation. Transcript and gene expression levels were quantified using the IsoEM (37) with default parameters. Counts per million (CPM) method is used for normalization. Differential expression was done using DESeq2 with default parameters. Genes involved in different biological pathways (human) were searched from Geneontology (http://geneontology.org/). Bioinformatics results can be validated by using Partek Flow (v10.0.21.0912), a bioinformatics pipeline developed by Zymo Research (https://www.zymoresearch.com/).
(§4) Tables 1 through 10 show in vitro activity of cyclotide MCo-52-2-cTAT against different human cancer cell lines, some with null-, mutated, or wildtype p53 phenotypes. Cell viability was evaluated using the MTT assay as described above.

PC-3 = experiment: MTT cell viability, PC-3 cells; format: cell-based; details: PC-3 prostate carcinoma, p53 Mutant, read-out: Cell viability, Human Prostate Cancer Cells
Method: as §3, §4

A2780 = experiment: MTT cell viability, A2780 ovarian cells; format: cell-based, human; details: p53 WT
Method: as §3, §4

DU145 = experiment: MTT cell viability, DU145 cells; format: cell-based; details: DU145 prostate carcinoma, p53 Mutant, read-out: Cell viability, Human Prostate Cancer Cells
Method: as §3, §4

AsPC-1 = experiment: MTT cell viability, AsPC-1 cells; format: cell-based, human; details: AsPC-1 pancreatic ductal adenocarcinoma, p53 Mutant
Method: as §1, §2

ES-2 = experiment: MTT cell viability, ES-2 ovarian cells; format: cell-based, human; details: p53 Mutant
Method: as §3, §4

LNCaP = experiment: MTT cell viability, LNCaP cells; format: cell-based; details: LNCaP prostate carcinoma, p53 WT, read-out: Cell viability, Human Prostate Cancer Cells
Method: as §3, §4

SW1990 = experiment: MTT cell viability, SW1990 cells; format: cell-based, human; details: SW1990 pancreatic adenocarcinoma, p53 Mutant (Deletion)
Method: as §1, §2

SW626 = experiment: MTT cell viability, SW626 cells; format: cell-based, human; details: SW626 ovarian cells, p53 Mutant; MTT (Table 7); read-out: Cell Viability Assay
Method: as §1, §2

SKOV 3 = experiment: MTT cell viability, SKOV 3 ovarian cells; format: cell-based, human; details: p53 Mutant
Method: as §3, §4

Capan-1 = experiment: MTT cell viability, Capan-1 cells; format: cell-based, human; details: Capan-1 pancreatic ductal adenocarcinoma, p53 Mutant
Method: as §1, §2

EC50 (U937): 9.6 ± 2.2 µM
EC50 (NCl-H526): 9.7 ± 1.8 µM
EC50 (Jurkat): 12.1 ± 1.6 µM
EC50 (HCT116^−/−): 23.7 ± 1.9 µM
EC50 (NCl-A549): 15.8 ± 2.2 µM
EC50 (SW480): 26.1 ± 3.3 µM
EC50 (PANC-1; Homo sapiens): 12.7 ± 1.6 µM
EC50 (MOLM-13): 0.7 ± 0.1 µM
EC50 (Caco-2): > 50 µM
EC50 (MIA PaCa-2; Homo sapiens): 10.5 ± 1.6 µM
EC50 (MV4-11): 0.3 ± 0.03 µM
EC50 (HCT116^+/+): 2.7 ± 0.2 µM
EC50 (NCl-H522): 22.7 ± 2.8 µM
EC50 (NCl-H1299): 21.5 ± 2.5 µM
EC50 (BxPC-3; Homo sapiens): 17.3 ± 2.3 µM
Structure (SMILES): CC(C)(C)C[C@@H]1N[C@@H](C(=O)N[C@H]2CC[C@H](O)CC2)[C@H](c2cccc(Cl)c2F)[C@]12C(=O)Nc1cc(Cl)ccc12 [MI-77301]
EC50 (NCl-H69): 31.7 ± 5.2 µM
EC50 (NCl-H23): 10.7 ± 1.9 µM
EC50 (CFPAC-1; Homo sapiens): 22.1 ± 1.6 µM
EC50 (MSCLC 494): 15.8 ± 2.2 µM
EC50 (HPAF-II; Homo sapiens): 6.7 ± 1 µM

Structure (SMILES): CC[C@H](C)[C@@H]1NC(=O)[C@@H]2CSSC[C@@H]3NC(=O)[C@H](C(C)C)NC(=O)CNC(=O)CNC(=O)[C@H](CC(=O)O)NC(=O)[C@H](CO)NC(=O)CNC(=O)[C@H](CO)NC(=O)CNC(=O)[C@@H]4CSSC[C@H](NC(=O)[C@H](CC(=O)O)NC(=O)[C@H](CO)NC(=O)[C@H](CC(=O)O)NC(=O)[C@H](CCCNC(=N)N)NC(=O)[C@H](CCCNC(=N)N)NC(=O)[C@H](CSSC[C@H](NC1=O)C(=O)N[C@@H](CCCNC(=N)N)C(=O)N[C@@H](Cc1c[nH]cn1)C(=O)N[C@@H](CC(=O)O)C(=O)N[C@@H](CO)C(=O)N[C@@H](Cc1ccc(O)cc1)C(=O)N4)NC(=O)[C@H](CC(C)C)NC(=O)[C@H](CC(C)C)NC(=O)[C@H](Cc1ccc(O)cc1)NC(=O)[C@H](CC(C)C)NC(=O)[C@H](CC(N)=O)NC(=O)[C@@H]1CCCN1C3=O)C(=O)N1CCC[C@H]1C(=O)NCC(=O)N[C@@H](C)C(=O)N2 [Cyclotide 52-2] (cyclo(ACICRHDSYCGSGSDGGVCPNLYLLCRRDSDCPG); disulfide 2-19, 4-26, 10-32)
EC50 (NIHOVCAR3): > 100 µM
EC50 (PC-3): > 100 µM
EC50 (A2780): > 100 µM
EC50 (DU145): > 100 µM
EC50 (AsPC-1): > 100 µM
EC50 (CFPAC-1): > 100 µM
EC50 (PANC-1): > 100 µM
EC50 (ES-2): > 100 µM
EC50 (MIA PaCa-2): > 100 µM
EC50 (LNCaP): > 100 µM
EC50 (HPAF-II): > 100 µM
EC50 (SW1990): > 100 µM
EC50 (SW626): > 100 µM
EC50 (BxPC-3): > 100 µM
EC50 (SKOV 3): > 100 µM
EC50 (Capan-1): > 100 µM
